Results reported in patent US20160375019A1, “TREATMENT OF CHRONIC GRAFT VERSUS HOST DISEASE WITH SYK INHIBITORS” (Gilead Sciences, Inc., priority 2015, published 2016).
Each block holds one compound with its values, some of them ahead of it.

Columns and labels:
[1] = Kinetic Solubility in phosphate buffer at pH 7.4; format: physicochemical; details: 37 °C, aqueous buffer, kinetic from dmso stock; phosphate buffer pH 7.4
Experimental: The kinetic solubility of compounds in phosphate buffer at pH 7.4 was assessed. The compounds to be tested were dissolved in dimethylsulfoxide at a 10 mM concentration. Stock samples were diluted, 3 μl with 297 μl of the phosphate buffer at pH 7.4 (DulBecco's phosphate buffered saline (Sigma-Aldrich D8662), overall molarity is 0.149 M and pH 7.43). The samples were then incubated for 24 hours at 37° C. with shaking, the centrifuged and an aliquot taken and tested relative to a known standard concentration of 0.1 mM.

hepatocytes = format: in vitro ADME; details: human
Experimental: The human […] stability of the compounds as predicted hepatocyte clearance in L/hr/kg was assessed. Compounds to be tested were diluted to 200 μM (4 μl of 10 mM DMSO stock into 196 μl ACN:H2O (50:50). Propranolol was used as a positive control, and buffer only without hepatocytes as 0% control. These were further diluted 4 μl with 891 μl KHB buffer (InVitroGRO catalog number Z99074) to provide 2× dosing solution. To each well of 24 well plate, 250 μl of the 2× dosing solution was added to each well with 250 μl of hepatocytes cells (1×10^6 viable cells/ml per well) or KHB for control samples to achieve a final compound concentration of 1 μM during incubation. The final solvent concentration was 0.01% DMSO and 0.25% ACN. The culture plate was placed on a rocker and incubated at 37° C., 5% CO2. Samples were collected at time 0, 1, 3, and 6 hours. The loss of parent compound was determined using LC-MS methods against a standard curve.

[2] = system: B cells (CD19+) in PBMCs from cGVHD and inactive cGVHD subjects; assay: Apoptosis Assay: B cells in PBMCs from subjects with active or inactive cGVHD, flow cytometry; format: cell-based, human; details: 48 hours
Experimental: Entospletinib (Formula I) was prepared as a 10 mM stock in dimethyl sulfoxide (DMSO). Before use, entospletinib was thawed from 10 mM DMSO stocks frozen in 0.75 mL polypropylene tubes at −20° C.
For untreated PBMCs, DMSO alone (the diluent used to generate entospletinib stock solution) was used in the cultures at the equivalent volume as for the 1.0 μM entospletinib treatment group. The cells were then incubated for 48 hr at 37° C. and 5% CO2, harvested, and assessed for the frequency of apoptotic B cells by flow cytometry analysis as described below.
Flow Cytometry Analysis—Cultured PBMCs were washed in FACS wash buffer (PBS containing 2% FBS) and then resuspended in FACS wash containing Fc block (Human TruStain FcXTM Fc Receptor Blocking Solution from BioLegend, San Diego, Calif.) at the recommended concentration. Following a 15 minute incubation on ice, the cells were stained with Pacific Blue™ conjugated anti-human CD19 antibody (BioLegend, Inc.) for an additional 30 min and then washed in cold PBS, followed by a second wash with Annexin V Binding Buffer (Annexin V Apoptosis Detection Kit-APC, eBioscience, Inc.) according to the manufacturer's instructions. The cells were then resuspended in Annexin V Binding Buffer containing APC-conjugated Annexin V, and incubated in the dark for 15 min at RT. Finally, the cells were washed with cold Annexin V Binding Buffer, resuspended in cold Annexin V Binding Buffer containing 7-AAD (BD Biosciences), kept on ice, and analyzed immediately on a FACSCantoTM flow cytometer. Flow cytometry data files were analyzed using FlowJo software (version X) to identify B cells and determine the frequencies of apoptotic cells based on Annexin V and 7-AAD staining.
For each set of patient samples, B cell apoptosis induced by entospletinib at each concentration was determined by the following ratio: % Annexin V^+/7-AAD^− B cells (entospletinib-treated)/% Annexin V^+/7-AAD^− B cells (untreated). […] Graphic display and curve fit analysis to determine the EC50 for entospletinib apoptosis-inducing activity in active cGVHD B cells was performed using GraphPad Prism software (GraphPad Software, La Jolla, Calif).

[3] = system: basophils (CD63 expression) in human whole blood; assay: 384-well HTBS Whole Blood CD63 Basophil Assay; format: cell-based; details: human whole blood (25% blood); comparison table
Experimental: Syk activity was assessed in relation to reduced activation of basophils as measured by the expression of CD63 in a human whole blood basophil cellular assay (25% blood). Basophil activation was measured in human whole blood using the Flow CAST kit (Buhlmann Laboratories AG, Baselstrasse, Switzerland) following the protocol provided by the manufacturer with minor modifications. Fresh human whole blood in heparin was collected and delivered same day (AllCells, Emeryville, Calif.). Whole blood samples were incubated with either DMSO (1% final) or serial diluted compounds in DMSO for 60 minutes at 37° C. Basophils were activated using the anti-FceRI mAb and stained with anti-CD63-FITC and anti-CCR3-PE for 20 minutes at 37° C. (per well: 50 μL of whole blood was mixed with 113 μL of stimulation buffer, 8.5 μL anti-FceRI mAb, 8.5 μL Ab stain CCR3-PE/CD63-FITC). Cells were centrifuged at 1000×g for 18 minutes and 150 μL/well of supernatant removed. Red blood cells were lysed and cells fixed by 2 rounds of cell lysing: resuspending cell pellets with 150 μL/well 1× lysis buffer, incubating at room temperature for 10 minutes, and collecting cell pellets by centrifuging for 1200 rpms for 5 minutes. Cells were washed with 150 μL/well wash buffer twice, and resuspended in a final volume of 75 μL/well of wash buffer for either immediate flow cytometery analysis or overnight incubation at 4° C. followed by flow cytometry analysis. Degranulation (basophil activation) was detected by CD63 surface expression on CCR3 positive cells. The percent CD63 positive cells within the gated basophil population were determined and normalized to the DMSO (negative control) and control compound (positive control).

solubility kinetic at 24 h [1]: > 90 µM
Hheps CL (hepatocytes): 0.12 L/h/kg
SMILES: Cc1ncc(-c2cn3ccnc3c(Nc3ccc(N4CCN(C5COC5)CC4)cc3)n2)nc1N [Ex.-1, 6-(6-amino-5-methylpyrazin-2-yl)-N-(4-(4-(oxetan-3-yl)piperazin-1-yl)phenyl)imidazo[1,2-a]pyrazin-8-amine]

SMILES: c1cn2cc(-c3ccc4cn[nH]c4c3)nc(Nc3ccc(N4CCOCC4)cc3)c2n1 [Entospletinib, 6-(1H-indazol-6-yl)-N-(4-morpholinophenyl)imidazo[1,2-a]pyrazin-8-amine]
B cell apoptosis, one subject with cGVHD with low level of baseline apoptosis ([2]; 1.0-0.0078 μM): dose-dependent increase in B cell apoptosis
B cell apoptosis, other two cGVHD subjects with higher baseline level of apoptosis ([2]; 1.0-0.0078 μM): caused an increase in B cell apoptosis
apoptosis of B cells obtained from subjects with cGVHD ([2]; 1.0-0.0078 μM): caused apoptosis of B cells
B cell apoptosis in cGVHD samples versus subjects without cGVHD ([2]; >125 nM ENTO, mean of 3 donors): statistically significant dose-dependent increase in B cell apoptosis
Annexin V+/7AAD− (frequency of parent) ([2]; Inactive #1, 7.8 nM): 47.7
Annexin V+/7AAD− (frequency of parent) ([2]; Inactive #1, 15.6 nM): 45.7
Annexin V+/7AAD− (frequency of parent) ([2]; Inactive #1, 31.3 nM): 46.6
Annexin V+/7AAD− (frequency of parent) ([2]; Inactive #1, 62.5 nM): 47.5
Annexin V+/7AAD− (frequency of parent) ([2]; Inactive #1, 125 nM): 53.4
Annexin V+/7AAD− (frequency of parent) ([2]; Inactive #1, 250 nM): 51.3
Annexin V+/7AAD− (frequency of parent) ([2]; Inactive #1, 500 nM): 48.7
Annexin V+/7AAD− (frequency of parent) ([2]; Inactive #1, 1000 nM): 44.4
Annexin V+/7AAD− (frequency of parent) ([2]; Inactive #2, 7.8 nM): 41.5
Annexin V+/7AAD− (frequency of parent) ([2]; Inactive #2, 15.6 nM): 39.8
Annexin V+/7AAD− (frequency of parent) ([2]; Inactive #2, 31.3 nM): 43.9
Annexin V+/7AAD− (frequency of parent) ([2]; Inactive #2, 62.5 nM): 42.2
Annexin V+/7AAD− (frequency of parent) ([2]; Inactive #2, 125 nM): 43.2
Annexin V+/7AAD− (frequency of parent) ([2]; Inactive #2, 250 nM): 44.9
Annexin V+/7AAD− (frequency of parent) ([2]; Inactive #2, 500 nM): 50.2
Annexin V+/7AAD− (frequency of parent) ([2]; Inactive #2, 1000 nM): 50.4
Annexin V+/7AAD− (frequency of parent) ([2]; Inactive #3, 7.8 nM): 50.4
Annexin V+/7AAD− (frequency of parent) ([2]; Inactive #3, 15.6 nM): 51.2
Annexin V+/7AAD− (frequency of parent) ([2]; Inactive #3, 31.3 nM): 51.7
Annexin V+/7AAD− (frequency of parent) ([2]; Inactive #3, 62.5 nM): 52.1
Annexin V+/7AAD− (frequency of parent) ([2]; Inactive #3, 125 nM): 52.4
Annexin V+/7AAD− (frequency of parent) ([2]; Inactive #3, 250 nM): 56.2
Annexin V+/7AAD− (frequency of parent) ([2]; Inactive #3, 500 nM): 57.1
Annexin V+/7AAD− (frequency of parent) ([2]; Inactive #3, 1000 nM): 55.6
Annexin V+/7AAD− (frequency of parent) ([2]; cGVHD #1, 7.8 nM): 40.1
Annexin V+/7AAD− (frequency of parent) ([2]; cGVHD #1, 15.6 nM): 40.4
Annexin V+/7AAD− (frequency of parent) ([2]; cGVHD #1, 31.3 nM): 42.0
Annexin V+/7AAD− (frequency of parent) ([2]; cGVHD #1, 62.5 nM): 48.2
Annexin V+/7AAD− (frequency of parent) ([2]; cGVHD #1, 125 nM): 48.2
Annexin V+/7AAD− (frequency of parent) ([2]; cGVHD #1, 250 nM): 50.7
Annexin V+/7AAD− (frequency of parent) ([2]; cGVHD #1, 500 nM): 53.6
Annexin V+/7AAD− (frequency of parent) ([2]; cGVHD #1, 1000 nM): 55.0
Annexin V+/7AAD− (frequency of parent) ([2]; cGVHD #2, 7.8 nM): 41.0
Annexin V+/7AAD− (frequency of parent) ([2]; cGVHD #2, 15.6 nM): 40.7
Annexin V+/7AAD− (frequency of parent) ([2]; cGVHD #2, 31.3 nM): 39.6
Annexin V+/7AAD− (frequency of parent) ([2]; cGVHD #2, 62.5 nM): 41.5
Annexin V+/7AAD− (frequency of parent) ([2]; cGVHD #2, 125 nM): 43.9
Annexin V+/7AAD− (frequency of parent) ([2]; cGVHD #2, 250 nM): 48.6
Annexin V+/7AAD− (frequency of parent) ([2]; cGVHD #2, 500 nM): 48.3
Annexin V+/7AAD− (frequency of parent) ([2]; cGVHD #2, 1000 nM): 53.5
Annexin V+/7AAD− (frequency of parent) ([2]; cGVHD #3, 7.8 nM): 19.6
Annexin V+/7AAD− (frequency of parent) ([2]; cGVHD #3, 15.6 nM): 20.0
Annexin V+/7AAD− (frequency of parent) ([2]; cGVHD #3, 31.3 nM): 20.8
Annexin V+/7AAD− (frequency of parent) ([2]; cGVHD #3, 62.5 nM): 21.6
Annexin V+/7AAD− (frequency of parent) ([2]; cGVHD #3, 125 nM): 26.4
Annexin V+/7AAD− (frequency of parent) ([2]; cGVHD #3, 250 nM): 29.5
Annexin V+/7AAD− (frequency of parent) ([2]; cGVHD #3, 500 nM): 32.7
Annexin V+/7AAD− (frequency of parent) ([2]; cGVHD #3, 1000 nM): 42.2

Hheps CL (hepatocytes): 0.9 L/h/kg
SMILES: COc1ccc(Nc2nc(-c3ccc(N)nc3)cn3ccnc23)cc1OC [6-(6-aminopyridin-3-yl)-N-(3,4-dimethoxyphenyl)imidazo[1,2-a]pyrazin-8-amine, reference compound]

solubility kinetic at 24 h [1]: > 90 µM
Hheps CL (hepatocytes): 0.05 L/h/kg
SMILES: Cc1ncc(-c2cn3ccnc3c(Nc3ccc(N4CCN(C5COC5)CC4)c(OCCO)c3)n2)nc1N [Ex.-7, 2-(5-((6-(6-amino-5-methylpyrazin-2-yl)imidazo[1,2-a]pyrazin-8-yl)amino)-2-(4-(oxetan-3-yl)piperazin-1-yl)phenoxy)ethanol]

IC50 [3]: 809 nM
Hheps CL (hepatocytes): 0.24 L/h/kg
SMILES: COc1ccc(Nc2nc(-c3cccc(N)c3)cn3ccnc23)cc1OC [6-(3-aminophenyl)-N-(3,4-dimethoxyphenyl)imidazo[1,2-a]pyrazin-8-amine, reference compound]

solubility kinetic at 24 h [1]: > 90 µM
Hheps CL (hepatocytes): 0.055 L/h/kg
SMILES: Nc1cncc(-c2cn3ccnc3c(Nc3ccc(N4CCN(C5COC5)CC4)cc3)n2)n1 [Ex.-2, 6-(6-aminopyrazin-2-yl)-N-(4-(4-(oxetan-3-yl)piperazin-1-yl)phenyl)imidazo[1,2-a]pyrazin-8-amine]

Hheps CL (hepatocytes): 0.68 L/h/kg
SMILES: Nc1cncc(-c2cn3ccnc3c(Nc3ccc(N4CCOCC4)cc3)n2)c1 [6-(5-aminopyridin-3-yl)-N-(4-morpholinophenyl)imidazo[1,2-a]pyrazin-8-amine, reference compound]

IC50 [3]: 250 nM
Hheps CL (hepatocytes): 0.8 L/h/kg
SMILES: Cc1ncc(-c2cn3ccnc3c(Nc3ccc(N4CCOCC4)cc3)n2)cc1N [6-(5-amino-6-methylpyridin-3-yl)-N-(4-morpholinophenyl)imidazo[1,2-a]pyrazin-8-amine, reference compound]
